In ChEMBL document CHEMBL1122184, “Synthesis and antileukemic activity of fluorinated analogues of 2,3-dihydro-5-phenyl-6,7-bis(hydroxymethyl)-1H-pyrrolizine biscarbamate” (J Med Chem, 1982):

Legend:
Mus musculus [1] = test: In vivo activity of compound was measured against P388 lymphocytic leukemia at the dose of 100 mg/kg; toxic; assay type: functional, organism-based; set-up: dose 100 mg/kg
Mus musculus [2] = test: In vivo activity of compound was measured against P388 lymphocytic leukemia at the dose of 12.5 mg/kg; assay type: functional
Mus musculus [3] = test: In vivo activity of compound was measured against P388 lymphocytic leukemia at the dose of 200 mg/kg; toxic; assay type: functional, organism-based; set-up: dose 200 mg/kg
Mus musculus [4] = test: In vivo activity of compound was measured against P388 lymphocytic leukemia at the dose of 25 mg/kg; assay type: functional
Mus musculus [5] = test: In vivo activity of compound was measured against P388 lymphocytic leukemia at the dose of 50 mg/kg; assay type: functional
Mus musculus [6] = test: In vivo activity of compound was measured against P388 lymphocytic leukemia at the dose of 6.25 mg/kg; assay type: functional
Mus musculus [7] = test: In vivo activity of compound was measured against P388 lymphocytic leukemia at the dose of 0.78 mg/kg.; assay type: functional
Mus musculus [8] = test: In vivo activity of compound was measured against P388 lymphocytic leukemia at the dose of 1.56 mg/kg.; assay type: functional
Mus musculus [9] = test: In vivo activity of compound was measured against P388 lymphocytic leukemia at the dose of 12.5 mg/kg.; assay type: functional
Mus musculus [10] = test: In vivo activity of compound was measured against P388 lymphocytic leukemia at the dose of 25 mg/kg; toxic; assay type: functional, organism-based; set-up: dose 25 mg/kg
Mus musculus [11] = test: In vivo activity of compound was measured against P388 lymphocytic leukemia at the dose of 3.13 mg/kg.; assay type: functional
Mus musculus [12] = test: In vivo activity of compound was measured against P388 lymphocytic leukemia at the dose of 50 mg/kg; toxic; assay type: functional, organism-based; set-up: dose 50 mg/kg
Mus musculus [13] = test: In vivo activity of compound was measured against P388 lymphocytic leukemia at the dose of 6.25 mg/kg.; assay type: functional
Mus musculus [14] = test: In vivo activity of compound was measured against P388 lymphocytic leukemia at the dose of 25 mg/kg.; assay type: functional
Mus musculus [15] = test: In vivo activity of compound was measured against P388 lymphocytic leukemia at the dose of 0.76 mg/kg.; assay type: functional
Mus musculus [16] = test: In vivo activity of compound was measured against P388 lymphocytic leukemia at the dose of 100 mg/kg; assay type: functional
Mus musculus [17] = test: In vivo activity of compound was measured against P388 lymphocytic leukemia at the dose of 0.78 mg/kg; toxic; assay type: ADME, organism-based; set-up: dose 0.78 mg/kg
Mus musculus [18] = test: In vivo activity of compound was measured against P388 lymphocytic leukemia at the dose of 100 mg/kg.; assay type: functional
Mus musculus [19] = test: In vivo activity of compound was measured against P388 lymphocytic leukemia at the dose of 50 mg/kg.; assay type: functional

SMILES | T/C (Mus musculus [1]) | T/C (Mus musculus [2]) | T/C (Mus musculus [3]) | T/C (Mus musculus [4]) | T/C (Mus musculus [5]) | T/C (Mus musculus [6]) | T/C (Mus musculus [7]) | T/C (Mus musculus [8]) | T/C (Mus musculus [9]) | T/C (Mus musculus [10]) | T/C (Mus musculus [11]) | T/C (Mus musculus [12]) | T/C (Mus musculus [13]) | T/C (Mus musculus [14]) | T/C (Mus musculus [15]) | T/C (Mus musculus [16]) | T/C (Mus musculus [17]) | T/C (Mus musculus [18]) | T/C (Mus musculus [19])
CNC(=O)OCc1c(COC(=O)NC)c(-c2cc(F)ccc2F)n2c1CCC2 | Toxic | 151% | Toxic | 156% | 73% | 147% | – | – | – | – | – | – | – | – | – | – | – | – | –
CNC(=O)OCc1c(COC(=O)NC)c(-c2ccc(F)cc2)n2c1CCC2 | Toxic | – | Toxic | – | – | – | 146% | 122% | 128% | Toxic | 141% | Toxic | 137% | – | – | – | – | – | –
CNC(=O)OCc1c(COC(=O)NC)c(-c2cccc(F)c2F)n2c1CCC2 | Toxic | – | Toxic | – | – | – | – | – | 149% | – | 134% | Toxic | 131% | 156% | – | – | – | – | –
CC(C)NC(=O)OCc1c(COC(=O)NC(C)C)c(-c2ccc(F)cc2F)n2c1CCC2 | Toxic | – | Toxic | – | – | – | – | 142% | 180% | – | 168% | Toxic | 162% | 99% | 135% | – | – | – | –
CC(C)NC(=O)OCc1c(COC(=O)NC(C)C)c(-c2ccc(Cl)c(Cl)c2)n2c1CCC2 | – | – | Toxic | – | 160% | – | – | 122% | 177% | – | 141% | – | 149% | 226% | – | 113% | – | – | –
CC(C)NC(=O)OCc1c(COC(=O)NC(C)C)c(-c2ccc(F)c(F)c2)n2c1CCC2 | – | – | Toxic | – | – | – | – | 126% | 178% | – | 151% | – | 160% | 123% | – | – | Toxic | 70% | 92%
CNC(=O)OCc1c(COC(=O)NC)c(-c2c(F)cccc2F)n2c1CCC2 | Toxic | – | Toxic | – | – | – | – | – | 148% | – | 148% | Toxic | 166% | 88% | – | – | – | – | –
